Reference: patent publication US9340590B2 (priority 2011, dated 2016)
Like-named read-outs stand apart in the source and are kept apart here. Positions of bridges follow the written chain, without caps; N, C: chain ends. Non-standard residues stand in square brackets, D forms with d. Residues, ends and D or L forms follow the SMILES beside them. Phe(4-I) = N[C@@H](Cc1ccc(I)cc1)C(=O)O; 1Nal = N[C@@H](Cc1cccc2ccccc12)C(=O)O

Experiments:
Experiment in all cases: cell-based
hNav1.5 [1] = target: T1, hNav1.5 (Homo sapiens, UniProt Q14524)
hNav1.7 [2] = target: T2, hNav1.7 (Homo sapiens, UniProt Q15858); type: cell-based
hNav1.5 [3] = target: T1, hNav1.5; remark: listed apart in the source
hNav1.3 [4] = target: T3, hNav1.3 (Homo sapiens, UniProt Q9NY46); type: cell-based; conditions: for IC50: Nav1.3 Use IC50
hNav1.3 [5] = target: T3, hNav1.3; conditions: IonWorks Quattro; clamped to −110 mV, depolarized to −10 mV, 5 min after compound; n=2; read-out: IWQ Use Nav1.3
hNav1.7 [6] = target: T2, hNav1.7
[7] = IonWorks Quattro, clamped to −110 mV, depolarized to −10 mV, 5 min after compound, n=2, read-out: IWQ Use Nav1.5
[8] = IonWorks Quattro, clamped to −110 mV, depolarized to −10 mV, 5 min after compound, n=2, read-out: IWQ Use Nav1.7

T1 sequence (Q14524 whole entry, looked up): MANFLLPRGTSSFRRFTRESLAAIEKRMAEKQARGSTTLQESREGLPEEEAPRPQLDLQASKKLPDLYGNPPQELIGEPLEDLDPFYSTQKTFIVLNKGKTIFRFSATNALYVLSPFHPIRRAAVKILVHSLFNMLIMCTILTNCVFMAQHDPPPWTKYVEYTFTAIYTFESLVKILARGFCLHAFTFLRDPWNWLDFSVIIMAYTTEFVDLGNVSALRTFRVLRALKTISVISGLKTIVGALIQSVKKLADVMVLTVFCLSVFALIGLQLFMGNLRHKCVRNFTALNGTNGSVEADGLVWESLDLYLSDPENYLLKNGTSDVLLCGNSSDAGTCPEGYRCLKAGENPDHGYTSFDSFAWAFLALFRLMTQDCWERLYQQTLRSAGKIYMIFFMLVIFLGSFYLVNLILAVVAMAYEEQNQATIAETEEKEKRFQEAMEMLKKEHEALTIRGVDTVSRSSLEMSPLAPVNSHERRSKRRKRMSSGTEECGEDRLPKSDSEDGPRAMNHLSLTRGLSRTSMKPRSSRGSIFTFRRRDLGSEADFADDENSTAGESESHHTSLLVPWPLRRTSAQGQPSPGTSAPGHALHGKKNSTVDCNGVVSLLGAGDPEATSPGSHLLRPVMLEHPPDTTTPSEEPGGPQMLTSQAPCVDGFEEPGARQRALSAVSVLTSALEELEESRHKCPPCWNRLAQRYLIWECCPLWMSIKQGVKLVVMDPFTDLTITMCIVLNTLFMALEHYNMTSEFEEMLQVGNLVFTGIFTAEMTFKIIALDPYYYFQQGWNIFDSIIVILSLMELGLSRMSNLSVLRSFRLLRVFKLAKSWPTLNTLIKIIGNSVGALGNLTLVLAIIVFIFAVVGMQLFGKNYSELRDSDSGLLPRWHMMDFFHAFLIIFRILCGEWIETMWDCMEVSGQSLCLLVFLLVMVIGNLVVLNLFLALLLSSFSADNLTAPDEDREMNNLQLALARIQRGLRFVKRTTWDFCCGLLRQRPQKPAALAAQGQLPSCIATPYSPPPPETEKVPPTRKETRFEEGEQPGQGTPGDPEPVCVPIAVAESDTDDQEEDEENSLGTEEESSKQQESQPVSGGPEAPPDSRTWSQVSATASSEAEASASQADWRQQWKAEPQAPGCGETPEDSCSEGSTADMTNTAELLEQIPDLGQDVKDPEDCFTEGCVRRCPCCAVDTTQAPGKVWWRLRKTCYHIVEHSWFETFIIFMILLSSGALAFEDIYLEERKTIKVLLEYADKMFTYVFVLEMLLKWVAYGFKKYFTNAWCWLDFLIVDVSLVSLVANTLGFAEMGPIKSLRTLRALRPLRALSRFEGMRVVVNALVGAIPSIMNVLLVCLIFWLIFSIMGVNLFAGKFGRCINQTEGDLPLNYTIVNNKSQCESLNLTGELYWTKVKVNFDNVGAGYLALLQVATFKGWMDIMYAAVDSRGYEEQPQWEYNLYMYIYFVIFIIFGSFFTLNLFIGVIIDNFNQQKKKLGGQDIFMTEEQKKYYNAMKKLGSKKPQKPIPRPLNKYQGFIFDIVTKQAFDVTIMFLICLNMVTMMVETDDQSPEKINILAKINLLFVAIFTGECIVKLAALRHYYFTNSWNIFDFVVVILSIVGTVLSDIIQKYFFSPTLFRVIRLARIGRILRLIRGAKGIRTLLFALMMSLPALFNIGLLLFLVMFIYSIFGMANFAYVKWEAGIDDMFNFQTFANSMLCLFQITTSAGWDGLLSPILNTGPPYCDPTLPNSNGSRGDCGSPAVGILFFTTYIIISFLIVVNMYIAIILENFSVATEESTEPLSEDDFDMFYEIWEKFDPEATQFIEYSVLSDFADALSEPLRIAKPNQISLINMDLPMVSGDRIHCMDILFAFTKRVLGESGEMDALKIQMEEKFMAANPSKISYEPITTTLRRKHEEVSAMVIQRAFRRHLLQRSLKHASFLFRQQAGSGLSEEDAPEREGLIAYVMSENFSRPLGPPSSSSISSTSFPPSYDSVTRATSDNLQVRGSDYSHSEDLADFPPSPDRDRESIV
T2 sequence (Q15858 whole entry, looked up): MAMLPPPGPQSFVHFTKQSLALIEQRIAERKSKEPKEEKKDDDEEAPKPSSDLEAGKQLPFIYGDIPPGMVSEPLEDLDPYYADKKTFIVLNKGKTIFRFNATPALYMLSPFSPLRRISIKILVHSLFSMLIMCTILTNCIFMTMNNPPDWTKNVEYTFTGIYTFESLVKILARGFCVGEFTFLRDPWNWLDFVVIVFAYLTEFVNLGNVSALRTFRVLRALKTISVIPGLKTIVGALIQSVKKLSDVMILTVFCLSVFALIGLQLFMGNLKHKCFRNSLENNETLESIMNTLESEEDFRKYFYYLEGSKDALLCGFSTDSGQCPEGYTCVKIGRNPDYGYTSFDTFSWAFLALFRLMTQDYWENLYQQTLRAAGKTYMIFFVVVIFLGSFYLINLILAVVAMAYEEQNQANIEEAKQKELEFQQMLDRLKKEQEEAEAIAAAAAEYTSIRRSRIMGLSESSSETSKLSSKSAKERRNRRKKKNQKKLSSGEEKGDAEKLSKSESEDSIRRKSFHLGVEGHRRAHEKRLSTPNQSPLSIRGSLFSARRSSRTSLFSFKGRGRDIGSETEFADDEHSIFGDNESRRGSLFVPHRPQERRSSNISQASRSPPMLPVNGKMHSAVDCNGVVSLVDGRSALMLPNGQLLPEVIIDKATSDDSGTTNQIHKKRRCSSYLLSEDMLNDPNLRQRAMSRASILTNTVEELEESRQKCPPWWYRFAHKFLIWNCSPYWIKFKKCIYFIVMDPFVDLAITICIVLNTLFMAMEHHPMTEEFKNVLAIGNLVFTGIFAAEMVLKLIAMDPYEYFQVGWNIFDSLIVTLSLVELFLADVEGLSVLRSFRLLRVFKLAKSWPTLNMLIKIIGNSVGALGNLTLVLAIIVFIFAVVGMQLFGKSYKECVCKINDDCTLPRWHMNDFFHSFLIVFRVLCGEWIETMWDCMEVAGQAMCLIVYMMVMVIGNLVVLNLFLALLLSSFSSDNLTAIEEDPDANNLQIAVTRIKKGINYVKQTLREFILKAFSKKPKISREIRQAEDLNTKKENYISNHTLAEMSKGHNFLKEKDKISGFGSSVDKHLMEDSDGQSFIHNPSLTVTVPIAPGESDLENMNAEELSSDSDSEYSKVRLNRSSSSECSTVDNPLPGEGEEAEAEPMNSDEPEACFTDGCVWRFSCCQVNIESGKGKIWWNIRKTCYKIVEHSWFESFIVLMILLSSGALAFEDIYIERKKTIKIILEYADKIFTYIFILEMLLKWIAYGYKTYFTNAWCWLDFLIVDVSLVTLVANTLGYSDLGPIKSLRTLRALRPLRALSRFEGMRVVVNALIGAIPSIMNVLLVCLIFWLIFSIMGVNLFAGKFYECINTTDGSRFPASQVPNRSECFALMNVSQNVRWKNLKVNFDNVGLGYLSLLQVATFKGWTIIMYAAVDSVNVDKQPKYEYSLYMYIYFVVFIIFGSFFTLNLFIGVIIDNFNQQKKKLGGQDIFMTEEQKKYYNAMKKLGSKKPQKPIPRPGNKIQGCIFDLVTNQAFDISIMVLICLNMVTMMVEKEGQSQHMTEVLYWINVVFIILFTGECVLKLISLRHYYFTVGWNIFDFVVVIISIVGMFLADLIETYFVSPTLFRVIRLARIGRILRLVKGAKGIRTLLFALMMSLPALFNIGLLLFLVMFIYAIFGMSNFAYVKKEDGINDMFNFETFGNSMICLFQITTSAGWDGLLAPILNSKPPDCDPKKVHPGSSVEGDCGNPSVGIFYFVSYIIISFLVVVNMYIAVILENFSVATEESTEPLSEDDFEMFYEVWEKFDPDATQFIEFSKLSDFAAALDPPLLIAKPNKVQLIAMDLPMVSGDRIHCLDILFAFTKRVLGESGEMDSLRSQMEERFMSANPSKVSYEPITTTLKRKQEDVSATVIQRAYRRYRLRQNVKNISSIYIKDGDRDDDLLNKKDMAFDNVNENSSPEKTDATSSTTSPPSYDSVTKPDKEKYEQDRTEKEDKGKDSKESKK

| SMILES | IC50 (hNav1.5 [1]) [nM] | IC50 (hNav1.7 [2]) [nM] | IC50 (hNav1.5 [3]; [7]) [nM] | IC50 (hNav1.3 [4]) [nM] | IC50 (hNav1.3 [5]) [nM] | IC50 (hNav1.7 [6]; Nav1.7 Use IC50) [nM] | IC50 (hNav1.7 [2]; [8]) [nM] | IC50 (hNav1.7 [6]; read-out: Nav1.7 Use IC50) [nM] | IC50 (hNav1.5 [3]; IWQ Use Nav1.5) [nM] | IC50 (hNav1.5 [1]; read-out: Nav1.5 Use IC50) [nM] | potency against NaV1.3, in words (hNav1.3 [4]) |
| --- | --- | --- | --- | --- | --- | --- | --- | --- | --- | --- | --- |
| CC[C@H](C)[C@@H]1NC(=O)[C@@H]2CSSC[C@@H]3NC(=O)[C@H](C(C)C)NC(=O)[C@H](CC(C)C)NC(=O)[C@H](CC(N)=O)NC(=O)[C@@H]4CCCN4C(=O)[C@H](CCCNC(=N)N)NC(=O)[C@H](CSSC[C@H](NC(=O)[C@@H](N)Cc4cccc5ccccc45)C(=O)N[C@@H](CC(C)C)C(=O)NCC(=O)N[C@@H](Cc4ccccc4)C(=O)N[C@@H](CCSC)C(=O)N[C@@H](CCCNC(=N)N)C(=O)N[C@@H](CCCCN)C(=O)N2)NC(=O)[C@H](CSSC[C@@H](C(=O)N[C@@H](CCCCN)C(=O)N[C@@H](Cc2ccc(O)cc2)C(=O)N[C@H](C(=O)N[C@@H](Cc2ccccc2)C(N)=O)C(C)C)NC(=O)[C@H](Cc2c[nH]c4ccccc24)NC(=O)[C@H](CCCCN)NC(=O)[C@H](Cc2c[nH]cn2)NC(=O)[C@H]([C@@H](C)O)NC(=O)[C@H](CCCNC(=N)N)NC(=O)[C@H](CO)NC3=O)NC(=O)[C@H](CCCCN)NC(=O)[C@H](CC(=O)O)NC(=O)[C@H](CC(N)=O)NC(=O)[C@H](CC(=O)O)NC(=O)[C@@H]2CCCN2C1=O [SEQ ID NO: 77] (H-[1Nal]CLGFMRKCIPDNDKCCRPNLVCSRTHKWCKYVF-NH2; disulfide 2-17, 9-23, 16-30) | 7600 | 110 | 13400 | 66 | 140 | 23 |  |  |  |  |  |
| CC[C@H](C)[C@@H]1NC(=O)[C@@H]2CSSC[C@@H]3NC(=O)[C@H](C(C)C)NC(=O)[C@H](CC(C)C)NC(=O)[C@H](CC(N)=O)NC(=O)[C@@H]4CCCN4C(=O)[C@H](CCCNC(=N)N)NC(=O)[C@H](CSSC[C@H](NC(=O)[C@@H](N)CC(=O)O)C(=O)N[C@@H](CC(C)C)C(=O)NCC(=O)N[C@@H](Cc4ccccc4)C(=O)N[C@@H](Cc4ccccc4)C(=O)N[C@@H](CCCNC(=N)N)C(=O)N[C@@H](CCCCN)C(=O)N2)NC(=O)[C@H](CSSC[C@@H](C(=O)N[C@@H](CCCCN)C(=O)N[C@@H](Cc2ccc(O)cc2)C(=O)N[C@H](C(=O)N[C@@H](Cc2ccccc2)C(N)=O)C(C)C)NC(=O)[C@H](Cc2c[nH]c4ccccc24)NC(=O)[C@H](CCCCN)NC(=O)[C@H](Cc2cnc[nH]2)NC(=O)[C@H]([C@@H](C)O)NC(=O)[C@H](CCCNC(=N)N)NC(=O)[C@H](CO)NC3=O)NC(=O)[C@H](CCCCN)NC(=O)[C@H](CC(=O)O)NC(=O)[C@H](CC(N)=O)NC(=O)[C@H](CC(=O)O)NC(=O)[C@@H]2CCCN2C1=O [SEQ ID NO: 89] (H-DCLGFFRKCIPDNDKCCRPNLVCSRTHKWCKYVF-NH2; disulfide 2-17, 9-23, 16-30) | 3160 | 50 | 9210 | 16 | 30 | 15 |  |  |  |  |  |
| CCCC[C@@H]1NC(=O)[C@H](Cc2ccccc2)NC(=O)CNC(=O)[C@H](CC(C)C)NC(=O)[C@@H](NC(=O)[C@@H](N)CC(=O)O)CSSC[C@@H]2NC(=O)[C@@H]3CSSC[C@@H](C(=O)N[C@@H](CCCCN)C(=O)N[C@@H](Cc4ccc(O)cc4)C(=O)N[C@H](C(=O)N[C@@H](Cc4ccccc4)C(N)=O)C(C)C)NC(=O)[C@H](Cc4c[nH]c5ccccc45)NC(=O)[C@H](CCCCN)NC(=O)[C@H](Cc4c[nH]cn4)NC(=O)[C@H]([C@@H](C)O)NC(=O)[C@H](CCCNC(=N)N)NC(=O)[C@H](CO)NC(=O)[C@H](CSSC[C@H](NC(=O)[C@H](CCCCN)NC(=O)[C@H](CCCNC(=N)N)NC1=O)C(=O)N[C@@H]([C@@H](C)CC)C(=O)N1CCC[C@H]1C(=O)N[C@@H](CC(=O)O)C(=O)N[C@@H](CC(N)=O)C(=O)N[C@@H](CC(=O)O)C(=O)N[C@@H](CCCCN)C(=O)N3)NC(=O)[C@H](C(C)C)NC(=O)[C@H](CC(C)C)NC(=O)[C@H](CC(N)=O)NC(=O)[C@@H]1CCCN1C(=O)[C@H](CCCNC(=N)N)NC2=O [SEQ ID NO: 123] | 1150 |  | 4500 | 9 | 20 |  | 50 | 8 |  |  |  |
| CC[C@H](C)[C@@H]1NC(=O)[C@@H]2CSSC[C@@H]3NC(=O)[C@H](C(C)C)NC(=O)[C@H](CC(C)C)NC(=O)[C@H](CC(N)=O)NC(=O)[C@@H]4CCCN4C(=O)[C@H](CCCNC(=N)N)NC(=O)[C@H](CSSC[C@H](NC(=O)[C@@H](N)CC(=O)O)C(=O)N[C@@H](CC(C)C)C(=O)NCC(=O)N[C@@H](Cc4ccccc4)C(=O)N[C@@H](Cc4cccc5ccccc45)C(=O)N[C@@H](CCCNC(=N)N)C(=O)N[C@@H](CCCCN)C(=O)N2)NC(=O)[C@H](CSSC[C@@H](C(=O)N[C@@H](CCCCN)C(=O)N[C@@H](Cc2ccc(O)cc2)C(=O)N[C@H](C(=O)N[C@@H](Cc2ccccc2)C(N)=O)C(C)C)NC(=O)[C@H](Cc2c[nH]c4ccccc24)NC(=O)[C@H](CCCCN)NC(=O)[C@H](Cc2c[nH]cn2)NC(=O)[C@H]([C@@H](C)O)NC(=O)[C@H](CCCNC(=N)N)NC(=O)[C@H](CO)NC3=O)NC(=O)[C@H](CCCCN)NC(=O)[C@H](CC(=O)O)NC(=O)[C@H](CC(N)=O)NC(=O)[C@H](CC(=O)O)NC(=O)[C@@H]2CCCN2C1=O [SEQ ID NO: 161] | 358 |  |  | 4 | 6 | 3 | 7 |  | 2340 |  |  |
| CC[C@H](C)[C@@H]1NC(=O)[C@@H]2CSSC[C@@H]3NC(=O)[C@H](C(C)C)NC(=O)[C@H](CC(C)C)NC(=O)[C@H](CC(N)=O)NC(=O)[C@@H]4CCCN4C(=O)[C@H](CCCNC(=N)N)NC(=O)[C@H](CSSC[C@H](NC(=O)[C@@H](N)CC(=O)O)C(=O)N[C@@H](CC(C)C)C(=O)NCC(=O)N[C@@H](Cc4ccc(-c5ccccc5)cc4)C(=O)N[C@@H](CCSC)C(=O)N[C@@H](CCCNC(=N)N)C(=O)N[C@@H](CCCCN)C(=O)N2)NC(=O)[C@H](CSSC[C@@H](C(=O)N[C@@H](CCCCN)C(=O)N[C@@H](Cc2ccc(O)cc2)C(=O)N[C@H](C(=O)N[C@@H](Cc2ccccc2)C(N)=O)C(C)C)NC(=O)[C@H](Cc2c[nH]c4ccccc24)NC(=O)[C@H](CCCCN)NC(=O)[C@H](Cc2c[nH]cn2)NC(=O)[C@H]([C@@H](C)O)NC(=O)[C@H](CCCNC(=N)N)NC(=O)[C@H](CO)NC3=O)NC(=O)[C@H](CCCCN)NC(=O)[C@H](CC(=O)O)NC(=O)[C@H](CC(N)=O)NC(=O)[C@H](CC(=O)O)NC(=O)[C@@H]2CCCN2C1=O [SEQ ID NO: 242] |  |  | 3380 | 3 |  | 62 | 60 |  |  | 2080 | increased potency |
| CC[C@H](C)[C@@H]1NC(=O)[C@@H]2CSSC[C@@H]3NC(=O)[C@H](C(C)C)NC(=O)[C@H](CC(C)C)NC(=O)[C@H](CC(N)=O)NC(=O)[C@@H]4CCCN4C(=O)[C@H](CCCNC(=N)N)NC(=O)[C@H](CSSC[C@H](NC(=O)[C@@H](N)CC(=O)O)C(=O)N[C@@H](CC(C)C)C(=O)NCC(=O)N[C@@H](Cc4ccccc4)C(=O)N[C@@H](CC4CCCCC4)C(=O)N[C@@H](CCCNC(=N)N)C(=O)N[C@@H](CCCCN)C(=O)N2)NC(=O)[C@H](CSSC[C@@H](C(=O)N[C@@H](CCCCN)C(=O)N[C@@H](Cc2ccc(O)cc2)C(=O)N[C@H](C(=O)N[C@@H](Cc2ccccc2)C(N)=O)C(C)C)NC(=O)[C@H](Cc2c[nH]c4ccccc24)NC(=O)[C@H](CCCCN)NC(=O)[C@H](Cc2cnc[nH]2)NC(=O)[C@H]([C@@H](C)O)NC(=O)[C@H](CCCNC(=N)N)NC(=O)[C@H](CO)NC3=O)NC(=O)[C@H](CCCCN)NC(=O)[C@H](CC(=O)O)NC(=O)[C@H](CC(N)=O)NC(=O)[C@H](CC(=O)O)NC(=O)[C@@H]2CCCN2C1=O [SEQ ID NO: 245] | 2680 |  | 2370 | 2 |  | 3 | 20 |  |  |  |  |
| CC[C@H](C)[C@@H]1NC(=O)[C@@H]2CSSC[C@@H]3NC(=O)[C@H](C(C)C)NC(=O)[C@H](CC(C)C)NC(=O)[C@H](CC(N)=O)NC(=O)[C@@H]4CCCN4C(=O)[C@H](CCCNC(=N)N)NC(=O)[C@H](CSSC[C@H](NC(=O)[C@@H](N)CC(=O)O)C(=O)N[C@@H](CC(C)C)C(=O)NCC(=O)N[C@@H](Cc4ccccc4)C(=O)N[C@@H](CCSC)C(=O)N[C@@H](CCCNC(=N)N)C(=O)N[C@@H](CCCCN)C(=O)N2)NC(=O)[C@H](CSSC[C@@H](C(=O)N[C@@H](CCCCN)C(=O)N[C@@H](Cc2ccc(O)cc2)C(=O)N[C@@H](Cc2ccc(I)cc2)C(=O)N[C@@H](Cc2ccccc2)C(N)=O)NC(=O)[C@H](Cc2c[nH]c4ccccc24)NC(=O)[C@H](CCCCN)NC(=O)[C@H](Cc2c[nH]cn2)NC(=O)[C@H]([C@@H](C)O)NC(=O)[C@H](CCCNC(=N)N)NC(=O)[C@H](CO)NC3=O)NC(=O)[C@H](CCCCN)NC(=O)[C@H](CC(=O)O)NC(=O)[C@H](CC(N)=O)NC(=O)[C@H](CC(=O)O)NC(=O)[C@@H]2CCCN2C1=O [[pI-Phe33]GpTx-1(1-34)] (H-DCLGFMRKCIPDNDKCCRPNLVCSRTHKWCKY[Phe(4-I)]F-NH2; disulfide 2-17, 9-23, 16-30) | 10400 |  |  | 35 |  | 26 |  |  |  |  |  |
